Reference: patent US20100297262A1, “[…] ACTIVE COMPOSITIONS COMPRISING OXIDATIVE STRESS MODULATORS (OSM), NEW CHEMICAL […], COMPOSITIONS AND USES” (COLBY PHARMACEUTICAL COMPANY, priority 2009, published 2010)
Like-named read-outs stand apart in the source and are kept apart here.

What was measured:
siSSAT clone = test: ROS production in siSSAT clone; type: cell-based, human; settings: R1881 treatment
[1] = tested on: LNCaP cells transfected with the control vector containing scrambled sequence; test: ROS production in vector control cells; type: cell-based, human; settings: R1881 treatment
LNCaP cells [2] = test: DNA (Hoechst 33258) fluorescence cell growth assay, Example 12; type: cell-based, human; settings: for cell growth (DNA fluorescence) with logarithmic increase in SAHA concentration: SAHA 0-10 μM
acetyl histone H4 = test: Western blot analysis of acetylated histones
LNCaP cells [3] = settings: cited from earlier work
[4] = Distribution and clearance of alkylTPP compounds (i.v., feeding tritiated compounds, drinking water); settings: mice
LNCaP cells [5] = test: Cellular ROS as ratio DCF fluorescence:DNA fluorescence, Example 12
Excerpt: Fluorescence of oxidized DCF dye is proportional to the total cellular ROS. When DCF fluorescence is normalized with the DNA fluorescence from the same well of the 96-well plate, the ratio DCF fluorescence:DNA fluorescence is proportional to the ROS generated per cell.

PC-3 cells [6] = test: Cellular ROS as ratio DCF fluorescence:DNA fluorescence; settings: 20 μM Vitamin E (non-toxic dose)
[7] = tested on: latently HIV infected T-Cells; settings: cited from earlier work
LNCaP cells [8] = test: LC-MS estimation of intracellular SAHA concentration; settings: Vitamin E pretreated cells, first 24 hours
Method: Ten μL of each extract was used for LC-MS analysis, and the assay was repeated three times.
The solvent gradient and the flow rates were adjusted appropriately. A 5 minute post-run column wash at 10% solvent A, 90% solvent B was maintained at 0.2 ml/min. The column thermostat was maintained at 25° C. for the complete run.
The Mass detector for the mass detection was carried out with Agilent 1100 quadruple moment bench-top mass spectrometer with electrospray ionization in the positive ion mode at 3000 V. For both the single ion MS and scanning MS/MS mode, the desolvation temperature was 340° C. with the drying gas flow rate of 12 l/min at a nebular pressure of 40 psig. […] All data were collected, stored and analyzed using Agilent software for data collection, peak detection and integration.

MDA-MB231 = test: DNA fluorescence cell growth assay; settings: Vitamin E pretreated
[9] = patients, oral SAHA 400 mg qd, cited from earlier work
[10] = tested on: superoxide dismutase (SOD); test: SOD assay; type: cell-based, human; settings: pretreated with 0.05 nM or 1 nM R1881 prior to 10 μM SAHA
all cell lines = test: DNA fluorescence cell growth assay, cell lines taken together; type: cell-based, human
[11] = tested on: advanced non-small-cell lung cancer (NSCLC); settings: survival improvements not significant at P=0.05; cited from earlier work
PC-3 cells [12] = test: DNA fluorescence cell growth assay; settings: SAHA below 10 μM
NCI-H460 = test: DNA fluorescence cell growth assay; settings: any concentration of SAHA
HDAC = tested on: HDAC
Excerpt: The HDAC activity is expressed as a ratio of HDAC product fluorescence/DNA fluorescence in relative fluorescence unit (FU).

[13] = tested on: recurrent glioblastoma multiforme; settings: compared to 4-4.4 months in earlier studies; cited from earlier work
HT-29 = test: DNA fluorescence cell growth assay; settings: Vitamin E pretreated
A549 = test: DNA fluorescence cell growth assay; settings: any concentration of SAHA
in vivo [14] = test: in vivo
Method: (§1) Pharmacokinetic (PK) studies of PMCol in mice administered 100 mg/kg PMCol p.o. or 5 mg/kg of PMCol i.v., using Liquid Chromatography-Mass Spectroscopic (LC-MS) analyses.

Jurkat cells = settings: Treatment: H2O2; cited from earlier work
[15] = tested on: Human colon cancer cell lines (HCT116 and RKO); settings: Treatment: 5-Fluorouracil; cited from earlier work
[16] = tested on: Isolated kidney mitochondria; settings: Treatment: Superoxide; cited from earlier work
COS-7 cells = settings: Treatment: H2O2; cited from earlier work
[17] = tested on: Isolated liver mitochondria; settings: Treatment: Ferrous iron/ascorbate; cited from earlier work
[18] = tested on: Friedreich's ataxia patient primary skin fibroblasts; settings: Treatment: Glutathione depletion; cited from earlier work
[19] = tested on: Rat primary cerebellar granule cells; settings: Treatment: Ethanol; cited from earlier work
[20] = tested on: Bovine aortic endothelial cells; settings: Treatment: H2O2 or hydroperoxyoctadecadienoic acid; cited from earlier work
[21] = rat, in vivo, po
Method: (§2) In order to test the efficacy of PMCol-C2 or Mito-PMCol-C10 in inhibiting growth of prostate tumors in vivo, the PMCol drug formulation was standardized, the route of its administration was determined and determination of the maximum tolerated dose (MTD), when administered orally or by i.v. injection.

LAPC4 = test: Growth of human prostate tumor cells in culture, PMCol; type: cell-based
Method: as §1
(§3) Mito-PMCol analogs and PMCol were compared for their relative cytostatic/anti-proliferative and cytotoxic and therapeutic activities in tumor cell systems as measured by clonogenic assays and direct live and dead cell counts are performed in a hemacytometer by trypan blue dye exclusion assay or by DNA fluorescence assays following routine published procedures established in our labs.

DU-145 = test: as above; type: cell-based
Method: as §1, §3

LNCaP = test: as above; type: cell-based
Method: as §1, §3

[22] = tested on: spontaneous TRAMP mouse tumors; test: TRansgenic Adenocarcinoma of Mouse Prostate (TRAMP) model; type: in vivo
Method: The inhibitory effect of PMCol on prostate tumor growth is tested in the well characterized […] Adenocarcinoma of Mouse Prostate (TRAMP) model. […] Tumor development in PMCol treated animals was delayed by over 8 weeks as compared to the control animals.

[23] = type: physicochemical; settings: pH 2
in vivo [24] = settings: mouse
Method: as §2

[25] = agent alone: 20 μM Vitamin E, 1 nM R1881 or 2 μM SAHA

C[C@]1(O)CC[C@H]2[C@@H]3CCC4=CC(=O)CCC4=C3C=C[C@@]21C [R1881]
ROS production (siSSAT clone): no significant effect on ROS production
ROS production [1]: marked increase
effect on LNCaP cell growth (LNCaP cells [2]; 0.05 nM R1881): growth stimulatory
effect on LNCaP cell growth (LNCaP cells [2]; 1 nM or above): growth inhibitory effect
acetyl-histone H4 level (acetyl histone H4; [25]): little effect on the acetyl-histone H4 level
cellular ROS (DCF dye oxidation) compared to 1-10 nM (LNCaP cells [3]; R1881 concentrations less than 0.1 nM, Ripple et al. 1997): significantly lower cellular ROS
cellular ROS (DCFH-DA dye oxidation) compared to 1 nM to 10 nM (LNCaP cells [3]; metribolone concentrations less than 1 nM, Ripple et al 1997): significantly lower cellular ROS

CC1(C)CC(OCCCCC[P+](c2ccccc2)(c2ccccc2)c2ccccc2)CC(C)(C)N1[O].[Br-] [Mito-Tempol]
redistribution once in the bloodstream [4]: rapidly redistribute into organs

Cc1c(C)c2c(c(C)c1OC(=O)CCC(=O)O)CC[C@@](C)(CCC[C@H](C)CCC[C@H](C)CCCC(C)C)O2 [Vitamin E, αTocopherol succinate]
ROS levels (LNCaP cells [5]; 20 μM Vitamin E (non-toxic dose), LNCaP treated and untreated with R1881): markedly reduces the ROS levels
acetyl histone H4 level (acetyl histone H4; Vitamin E + R1881 + SAHA): almost completely restores
acetyl-histone H4 level (acetyl histone H4; [25]): little effect on the acetyl-histone H4 level
ROS levels (PC-3 cells [6]): markedly reduces the ROS levels

O=C(CCCCCCC(=O)Nc1ccccc1)NO [SAHA, Suberoylanilide hydroxamic acid]
effects against latently HIV infected T-Cells [7]: both in vitro and in vivo effects
intracellular SAHA level (LNCaP cells [8]): no significant decrease
SAHA sensitivity compared to Vitamin E untreated cells (MDA-MB231): higher in Vitamin E pretreated cells
serum SAHA level [9]: ~349 ng/mL
serum SAHA level ([9]; clinically achievable): ~1.3 µM
SOD activity of LNCaP cells [10]: no significant difference in the SOD activity
nature of the increase in SAHA sensitivity (formalism of Chou and Talalay) (all cell lines; Vitamin E pretreatment followed by SAHA): synergistic
activity at clinically achievable serum level (~1.3 μM) (all cell lines; cell lines untreated with Vitamin E or another similar anti-oxidant): inactive
sensitivity to SAHA at a concentration much below the clinically achievable serum level (all cell lines; prostate, breast and colon cancer cells pretreated with anti-oxidants such as Vitamin E): highly sensitive
response and survival [11]: improved response rates and increased median progression free survival and overall survival
cellular ROS (DCF/DNA fluorescence) with increase in SAHA concentration (LNCaP cells [5]; no R1881): ROS increases
cellular ROS (DCF/DNA fluorescence) with increase in SAHA concentration (LNCaP cells [5]; pretreated with 0.05 nM R1881): negligible effect on total cellular ROS levels
cellular ROS (DCF/DNA fluorescence) with increase in SAHA concentration (LNCaP cells [5]; pretreated with 2 nM R1881): negligible effect on total cellular ROS levels
cell growth (DNA fluorescence) with logarithmic increase in SAHA concentration (LNCaP cells [2]; no R1881): inhibited almost linearly
cell growth (DNA fluorescence) (LNCaP cells [2]; normal androgen level (1 nM R1881), even at 10 μM SAHA): little effect on cell growth
cell growth (DNA fluorescence) with logarithmic increase in SAHA concentration (LNCaP cells [2]; pretreated with 0.05 nM R1881): inhibited almost linearly
cell growth (DNA fluorescence) (LNCaP cells [2]; pretreated with 2 nM R1881, all SAHA concentrations tested): negligible effect on cell growth
resistance of PC-3 cells to SAHA (PC-3 cells [12]): intrinsically resistant
change of SAHA sensitivity after Vitamin E pretreatment (NCI-H460): do not show any appreciable increase in SAHA sensitivity
HDAC activity with increasing concentrations of SAHA (HDAC; R1881 untreated vector control cells, androgen-treated and untreated siSSAT cells): decreases in a similar fashion
HDAC activity with increasing concentrations of SAHA (HDAC; vector control cells pretreated with 1 nM R1881): increases after an initial decrease
median overall survival [13]: 5.7 months
acetyl-histone H4 level (acetyl histone H4; 1 nM R1881 pretreated cells + 2 μM SAHA): marked decrease
acetyl-histone H4 level (acetyl histone H4; [25]): small, but significant increase
SAHA sensitivity compared to Vitamin E untreated cells (HT-29): higher in Vitamin E pretreated cells
change of SAHA sensitivity after Vitamin E pretreatment (A549): do not show any appreciable increase in SAHA sensitivity

CC1=C(C)C(=O)C(CCC(C)(C)O)=C(C)C1=O [PMQ, 2-(3-hydroxy-3-methylbutyl)-3,5,6-trimethyl-1,4-benzo-quinone]
time the metabolite remained in the serum (in vivo [14]; mice, oral PMCol, last time point of PK studies): at least 24 hours
appearance of the LC-MS peak in serum after oral administration of PMCol (in vivo [14]; mouse, in vivo, po): appears in serum within minutes

Cc1c(C)c2c(c(C)c1O)CCC(C)(CC[P+](c1ccccc1)(c1ccccc1)c1ccccc1)O2 (stereo not drawn) [MitoVE-C2]
Outcome: apoptosis (Jurkat cells): Decreases apoptosis
Outcome: apoptosis from 5-FU chemotherapy [15]: Decreases apoptosis from 5-
Outcome: activation of uncoupling proteins [16]: Blocks activation of
Outcome: growth factor receptor and kinase phosphorylation (COS-7 cells): Decreases growth factor
Outcome: lipid peroxidation, protein carbonyl formation and loss of membrane potential [17]: Decreases lipid peroxidation,
Outcome: cell death [18]: Decreases cell death
Outcome: dichlorofluorescein fluorescence and cell death [19]: Decreases
Outcome: transferrin receptor expression and iron uptake [20]: fluorescence. Decreases

Cc1c(C)c2c(c(C)c1O)CCC(C)(C)O2 [PMCol, 2,2,5,7,8-pentamethyl-6-chromanol]
DLT [21]: 2 grams/kilogram/day
growth of androgen-dependent LAPC4 cells in culture (LAPC4): inhibits the growth
growth of androgen-independent DU-145 cells in culture (DU-145): inhibits the growth
growth of androgen-dependent LNCaP cells in culture (LNCaP): inhibits the growth
delay of tumor development as compared to the control animals ([22]; TRAMP model, PMCol treated animals): over 8 weeks
growth of spontaneous TRAMP mouse tumors ([22]; mouse, in vivo): inhibits the growth
oxidized metabolite (in vivo [14]; mouse, in vivo): ring-opened PMQ
bioavailability in blood serum (in vivo [14]; mouse, in vivo, iv): 0.5 mg/kg
half-life (in vivo [14]; mouse, in vivo, iv): 2 h
time after injection within which serum levels went down quickly (in vivo [14]; mouse, in vivo, iv, 5 mg/kg): ≤ 2 h
bioavailability in blood serum (in vivo [14]; mouse, in vivo, po): 4 mg/kg
half-life (in vivo [14]; mouse, in vivo, po): 0.5 h
in vivo metabolism (in vivo [14]; mouse, in vivo, po): oxidized in vivo to the hydroxylated-PMCol
time after administration within which serum levels went down quickly (in vivo [14]; mouse, in vivo, po, 100 mg/kg): ≤ 15 min
acid stability [23]: lability
safety of administration (in vivo [24]): safely administered
MTD (in vivo [24]; iv): 7.5 mg/kg
MTD (in vivo [24]; po): 100 mg/kg
